Experimental data published in patent US20090012045A1, “Methods of Treating Cell Proliferative Disorders” (RIGEL PHARMACEUTICALS, INC., priority 2007, published 2009).

Legend:
[1] = tested on: MDA-MB-231/ATCC; settings: MDA-MB-231/ATCC (Breast Cancer)
[2] = tested on: A549/ATCC; settings: A549/ATCC (Non-Small Cell Lung Cancer)
[3] = tested on: SK-MEL-2; settings: SK-MEL-2 (Melanoma)
[4] = tested on: UACC-62; settings: UACC-62 (Melanoma)
[5] = tested on: RXF 393; settings: RXF 393 (Renal Cancer)
[6] = tested on: CCRF-CEM; settings: CCRF-CEM (Leukemia)
[7] = tested on: SW-620; settings: SW-620 (Colon Cancer)
[8] = tested on: EKVX; settings: EKVX (Non-Small Cell Lung Cancer)
[9] = tested on: SNB-19; settings: SNB-19 (CNS Cancer)
[10] = tested on: UACC-257; settings: UACC-257 (Melanoma)
[11] = tested on: SK-MEL-28; settings: SK-MEL-28 (Melanoma)
[12] = tested on: T-47D; settings: T-47D (Breast Cancer)
[13] = tested on: HCC-2998; settings: HCC-2998 (Colon Cancer)
[14] = tested on: SR; settings: SR (Leukemia)
[15] = tested on: OVCAR-3; settings: OVCAR-3 (Ovarian Cancer)
[16] = tested on: NCI-H23; settings: NCI-H23 (Non-Small Cell Lung Cancer)
[17] = tested on: SK-MEL-5; settings: SK-MEL-5 (Melanoma)
[18] = tested on: BT-549; settings: BT-549 (Breast Cancer)
[19] = tested on: HCT-15; settings: HCT-15 (Colon Cancer)
[20] = tested on: MCF7; settings: MCF7 (Breast Cancer)
[21] = tested on: DU-145; settings: DU-145 (Prostate Cancer)
[22] = tested on: HCT-116; settings: HCT-116 (Colon Cancer)
[23] = tested on: MOLT-4; settings: MOLT-4 (Leukemia)
[24] = tested on: HOP-62; settings: HOP-62 (Non-Small Cell Lung Cancer)
[25] = tested on: SNB-75; settings: SNB-75 (CNS Cancer)
[26] = tested on: OVCAR-5; settings: OVCAR-5 (Ovarian Cancer)
[27] = tested on: K-562; settings: K-562 (Leukemia)

For `COc1cc(Nc2ncc(F)c(Nc3ccc4c(n3)NC(=O)C(C)(C)O4)n2)cc(OC)c1OC.O=S(=O)(O)c1ccccc1` [Compound 1 (besylate salt), N4-(2,2-Dimethyl-3-oxo-4H-5-pyrid[1,4]oxazin-6-yl)-5-fluoro-N2-(3,4,5-trimethoxyphenyl)-2,4-pyrimidinediamine Benzenesulfonic Acid Salt], the TGI [1] was >1.00E−4, the CC50 ([1]; read-out: LC50) was > 100 µM and the TGI [2] was >1.00E−4. For the same compound, the CC50 ([2]; read-out: LC50) was > 100 µM, the GI50 [3] was > 100 µM and the TGI [3] was >1.00E−4. The CC50 ([3]; read-out: LC50) was > 100 µM, the TGI [4] was >1.00E−4 and the CC50 ([4]; read-out: LC50) was > 100 µM. The GI50 [5] was 0.196 µM, the TGI [5] was 7.74E−7 and the CC50 ([5]; read-out: LC50) was > 100 µM. The TGI [6] was >1.00E−4, the CC50 ([6]; read-out: LC50) was > 100 µM and the TGI [7] was >1.00E−4. The CC50 ([7]; read-out: LC50) was > 100 µM, the GI50 [8] was 1.66 µM and the TGI [8] was >1.00E−4. For the same compound, the CC50 ([8]; read-out: LC50) was > 100 µM, the GI50 [9] was > 100 µM and the TGI [9] was >1.00E−4. For the same compound, the CC50 ([9]; read-out: LC50) was > 100 µM, the GI50 [10] was > 100 µM and the TGI [10] was >1.00E−4. The CC50 ([10]; read-out: LC50) was > 100 µM, the GI50 [11] was > 100 µM and the TGI [11] was >1.00E−4. The CC50 ([11]; read-out: LC50) was > 100 µM, the TGI [12] was >1.00E−4 and the CC50 ([12]; read-out: LC50) was > 100 µM. For the same compound, the GI50 [13] was > 100 µM, the TGI [13] was >1.00E−4 and the CC50 ([13]; read-out: LC50) was > 100 µM. For the same compound, the GI50 [14] was 3.56 µM, the TGI [14] was >1.00E−4 and the CC50 ([14]; read-out: LC50) was > 100 µM. For the same compound, the GI50 [15] was > 100 µM, the TGI [15] was >1.00E−4 and the CC50 ([15]; read-out: LC50) was > 100 µM. The TGI [16] was >1.00E−4, the CC50 ([16]; read-out: LC50) was > 100 µM and the GI50 [17] was > 100 µM. For the same compound, the TGI [17] was >1.00E−4, the CC50 ([17]; read-out: LC50) was > 100 µM and the GI50 [18] was 2.43 µM. The TGI [18] was >1.00E−4, the CC50 ([18]; read-out: LC50) was > 100 µM and the TGI [19] was >1.00E−4. The CC50 ([19]; read-out: LC50) was > 100 µM, the GI50 [20] was 2.72 µM and the TGI [20] was >1.00E−4. The CC50 ([20]; read-out: LC50) was > 100 µM, the TGI [21] was >1.00E−4 and the CC50 ([21]; read-out: LC50) was > 100 µM. The TGI [22] was >1.00E−4, the CC50 ([22]; read-out: LC50) was > 100 µM and the GI50 [23] was 4.82 µM. The TGI [23] was >1.00E−4, the CC50 ([23]; read-out: LC50) was > 100 µM and the GI50 [24] was 0.537 µM. The TGI [24] was >1.00E−4, the CC50 ([24]; read-out: LC50) was > 100 µM and the GI50 [25] was 0.871 µM. For the same compound, the TGI [25] was >1.00E−4, the CC50 ([25]; read-out: LC50) was > 100 µM and the GI50 [26] was > 100 µM. The TGI [26] was >1.00E−4, the CC50 ([26]; read-out: LC50) was > 100 µM and the GI50 [27] was > 100 µM. The TGI [27] was >1.00E−4 and the CC50 ([27]; read-out: LC50) was > 100 µM.
